Earlier results, collected in US20030082231A1, “Coating for orally administered compositions” (priority 2001, published 2003).

Tested on: sister chromatid exchanges (SCE) damage induced by benzo(a)pyrene

In the case of chlorophyllin, the “genotoxic inhibition (frequency of sister chromatid exchanges)” value (SCE damage induced by benzo(a)pyrene, in vivo) is given as “about 80%” and the “cell proliferation kinetics (CPK)” value (chlorophyllin plus benzo(a)pyrene) is given as “inhibition of the cell proliferation kinetics”.
